Measurements from ChEMBL document CHEMBL1201862, “PubChem BioAssay data set” (2004).
The source made the active and inactive calls.

Key:
[1] = molecular target: T1, Endoribonuclease toxin MazF (Escherichia coli K-12, UniProt P0AE70); assay: substrate-only fluorescence increase artefacts – biochemical, single-stranded RNase substrate, counter-screen for MazEF activator project, dose response (AID 588502); format: functional
T1 sequence (P0AE70 whole entry): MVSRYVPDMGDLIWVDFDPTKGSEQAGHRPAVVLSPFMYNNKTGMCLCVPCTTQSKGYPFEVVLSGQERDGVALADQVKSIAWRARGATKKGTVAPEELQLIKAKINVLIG

[2] = molecular target: T1, Endoribonuclease toxin MazF; assay: activation of MazEF endoribonuclease cleavage – biochemical, fluorescence, single-stranded RNA substrate, uHTS hits, dose response (AID 588481); format: functional
[3] = microbe, parasite or virus in culture; format: functional; settings: Mycobacterium tuberculosis
[4] = molecular target: Paired box protein Pax-8 (Homo sapiens, UniProt Q06710); assay: PAX8 transcriptional activity inhibition in RMG-I – RMG-I cells, luciferase, cherry-pick, dose response (AID 687027); format: functional, cell-based;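 note: luciferase reporter driven by Pax8 target thyroperoxidase promoter measured by SteadyGlo luminescence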
Sequence of Paired box protein Pax-8 (Q06710 whole entry): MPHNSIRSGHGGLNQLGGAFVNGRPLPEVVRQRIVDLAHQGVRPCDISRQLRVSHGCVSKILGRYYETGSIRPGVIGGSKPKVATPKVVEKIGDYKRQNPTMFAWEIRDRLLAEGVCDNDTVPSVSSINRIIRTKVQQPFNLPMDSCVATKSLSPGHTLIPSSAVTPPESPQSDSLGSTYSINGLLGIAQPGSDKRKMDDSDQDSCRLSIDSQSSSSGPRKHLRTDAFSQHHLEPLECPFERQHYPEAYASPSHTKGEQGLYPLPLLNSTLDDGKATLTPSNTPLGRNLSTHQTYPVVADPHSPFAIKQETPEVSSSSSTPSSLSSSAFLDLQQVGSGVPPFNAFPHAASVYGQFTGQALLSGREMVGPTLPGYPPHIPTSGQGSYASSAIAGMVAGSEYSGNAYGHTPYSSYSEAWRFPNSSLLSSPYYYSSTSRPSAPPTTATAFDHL

[5] = molecular target: Luciferin 4-monooxygenase (Photinus pyralis, UniProt P08659); assay: inhibition of purified Photinus pyralis luciferase – biochemical, luminescence, dose response (AID 1891)
Sequence of Luciferin 4-monooxygenase (P08659 whole entry): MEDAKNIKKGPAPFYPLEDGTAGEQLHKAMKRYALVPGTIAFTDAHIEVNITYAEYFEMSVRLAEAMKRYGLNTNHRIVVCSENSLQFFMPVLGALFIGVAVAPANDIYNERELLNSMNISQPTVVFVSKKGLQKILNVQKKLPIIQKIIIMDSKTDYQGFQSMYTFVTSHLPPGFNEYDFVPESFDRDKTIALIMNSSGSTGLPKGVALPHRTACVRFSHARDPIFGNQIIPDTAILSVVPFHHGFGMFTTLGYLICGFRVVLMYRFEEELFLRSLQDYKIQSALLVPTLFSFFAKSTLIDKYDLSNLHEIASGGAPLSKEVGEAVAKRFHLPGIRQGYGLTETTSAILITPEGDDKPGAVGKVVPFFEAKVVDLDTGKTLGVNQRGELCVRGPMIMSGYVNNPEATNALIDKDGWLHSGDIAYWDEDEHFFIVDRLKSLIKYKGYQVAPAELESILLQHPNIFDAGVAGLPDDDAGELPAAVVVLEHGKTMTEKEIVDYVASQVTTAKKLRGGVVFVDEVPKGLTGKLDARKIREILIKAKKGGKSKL

[6] = molecular target: Cyclin-dependent kinase 5/CDK5 activator 1 (Homo sapiens, UniProt Q00535); assay: blockade of human CDK5 activity – biochemical, cherry-picked samples, set 2, dose response (AID 504545)
Sequence of Cyclin-dependent kinase 5/CDK5 activator 1 (Q00535 whole entry): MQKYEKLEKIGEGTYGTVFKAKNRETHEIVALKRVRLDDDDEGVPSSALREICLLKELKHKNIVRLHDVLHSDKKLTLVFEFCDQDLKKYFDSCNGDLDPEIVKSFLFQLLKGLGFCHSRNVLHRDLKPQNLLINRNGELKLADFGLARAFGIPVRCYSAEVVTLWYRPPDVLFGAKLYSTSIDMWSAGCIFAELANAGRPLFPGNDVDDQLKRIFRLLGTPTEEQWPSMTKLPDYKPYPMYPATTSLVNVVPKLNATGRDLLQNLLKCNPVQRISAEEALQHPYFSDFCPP
Sequence of Cyclin-dependent kinase 5/CDK5 activator 1 (Q15078 whole entry, further chain): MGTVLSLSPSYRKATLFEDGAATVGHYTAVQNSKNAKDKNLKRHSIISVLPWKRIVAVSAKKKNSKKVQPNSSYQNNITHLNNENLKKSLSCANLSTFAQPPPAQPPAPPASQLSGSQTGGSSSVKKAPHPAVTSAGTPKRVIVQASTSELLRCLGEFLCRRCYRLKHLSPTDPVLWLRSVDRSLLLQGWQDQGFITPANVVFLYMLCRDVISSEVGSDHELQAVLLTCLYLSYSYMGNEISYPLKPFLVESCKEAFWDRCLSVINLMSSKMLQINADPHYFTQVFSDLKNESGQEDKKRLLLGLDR

[7] = molecular target: T2, Neuropeptide Y receptor type 1 (Homo sapiens, UniProt P25929); format: functional;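 note: HEK293 cells with a CNG channel challenged with NPY then isoproterenol; potency as antagonist that reverses NPY suppression of cAMP signal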
T2 sequence (P25929 whole entry): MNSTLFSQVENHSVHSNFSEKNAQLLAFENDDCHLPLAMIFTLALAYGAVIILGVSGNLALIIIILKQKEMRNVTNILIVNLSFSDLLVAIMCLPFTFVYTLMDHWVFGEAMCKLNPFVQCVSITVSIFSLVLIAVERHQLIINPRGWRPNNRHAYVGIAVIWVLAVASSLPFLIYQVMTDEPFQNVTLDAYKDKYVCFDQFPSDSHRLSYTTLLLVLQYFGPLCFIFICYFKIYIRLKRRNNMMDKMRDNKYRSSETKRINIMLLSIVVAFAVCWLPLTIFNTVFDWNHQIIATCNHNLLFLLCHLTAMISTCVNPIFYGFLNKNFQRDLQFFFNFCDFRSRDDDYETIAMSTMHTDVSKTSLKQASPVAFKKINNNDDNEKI

[8] = molecular target: T3, Neuropeptide Y receptor type 2 (Homo sapiens, UniProt P49146); format: functional, cell-based;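 note: HEK293 cells expressing the receptor and a CNG channel; stimulus was NPY near EC95 followed by isoproterenol to raise cAMP; antagonist potency measured as restoring cAMP signal that NPY suppresses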
T3 sequence (P49146 whole entry): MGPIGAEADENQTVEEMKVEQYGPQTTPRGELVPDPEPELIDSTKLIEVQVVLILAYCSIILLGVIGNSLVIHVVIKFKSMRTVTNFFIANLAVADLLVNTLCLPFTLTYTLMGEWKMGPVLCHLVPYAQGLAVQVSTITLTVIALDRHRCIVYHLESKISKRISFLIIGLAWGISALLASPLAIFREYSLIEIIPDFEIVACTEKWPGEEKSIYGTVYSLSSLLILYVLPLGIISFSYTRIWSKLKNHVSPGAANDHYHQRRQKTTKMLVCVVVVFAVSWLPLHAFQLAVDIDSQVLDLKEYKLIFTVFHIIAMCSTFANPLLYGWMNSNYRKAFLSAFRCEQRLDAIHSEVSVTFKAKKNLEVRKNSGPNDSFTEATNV

[9] = molecular target: T4, RNA-binding protein pos-1 (Caenorhabditis elegans, UniProt G5EF15); assay: disruptors of C. elegans POS-1 RNA interaction – biochemical, fluorescence polarization, dose response (AID 1964);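 note: purified POS-1 fused to maltose binding protein made in E. coli; potency of compounds blocking POS-1 binding to fluorescent RNA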
T4 sequence (G5EF15 whole entry): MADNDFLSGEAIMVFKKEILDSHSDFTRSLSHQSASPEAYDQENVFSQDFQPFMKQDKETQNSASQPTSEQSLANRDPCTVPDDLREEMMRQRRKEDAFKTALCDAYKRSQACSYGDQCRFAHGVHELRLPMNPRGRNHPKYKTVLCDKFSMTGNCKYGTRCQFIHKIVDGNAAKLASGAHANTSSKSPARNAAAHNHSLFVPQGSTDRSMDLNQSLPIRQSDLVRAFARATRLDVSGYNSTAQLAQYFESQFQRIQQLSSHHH

[10] = molecular target: T5, Zinc finger protein mex-5 (Caenorhabditis elegans, UniProt Q9XUB2); assay: potency of MEX-5 RNA-binding blockers – biochemical, C. elegans, fluorescence polarization, dose response (AID 1960)
T5 sequence (Q9XUB2 whole entry): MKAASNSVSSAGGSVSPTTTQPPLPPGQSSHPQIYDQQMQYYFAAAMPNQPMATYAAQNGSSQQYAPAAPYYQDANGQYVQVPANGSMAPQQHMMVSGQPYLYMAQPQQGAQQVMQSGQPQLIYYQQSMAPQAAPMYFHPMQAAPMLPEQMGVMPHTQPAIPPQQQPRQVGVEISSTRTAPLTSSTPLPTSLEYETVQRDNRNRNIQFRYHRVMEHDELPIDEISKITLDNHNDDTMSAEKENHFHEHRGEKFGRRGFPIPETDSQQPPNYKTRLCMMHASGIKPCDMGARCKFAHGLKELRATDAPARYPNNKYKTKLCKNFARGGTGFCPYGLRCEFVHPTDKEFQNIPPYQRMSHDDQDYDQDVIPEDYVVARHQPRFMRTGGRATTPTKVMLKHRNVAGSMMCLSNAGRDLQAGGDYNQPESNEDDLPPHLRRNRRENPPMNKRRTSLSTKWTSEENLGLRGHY

[11] = molecular target: T6, Coagulation factor XII (Homo sapiens, UniProt P00748); format: functional;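 note: activated factor XIIa alpha cleaving a fluorogenic AMC peptide substrate; inhibitor potency from loss of enzyme activity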
T6 sequence (P00748 whole entry): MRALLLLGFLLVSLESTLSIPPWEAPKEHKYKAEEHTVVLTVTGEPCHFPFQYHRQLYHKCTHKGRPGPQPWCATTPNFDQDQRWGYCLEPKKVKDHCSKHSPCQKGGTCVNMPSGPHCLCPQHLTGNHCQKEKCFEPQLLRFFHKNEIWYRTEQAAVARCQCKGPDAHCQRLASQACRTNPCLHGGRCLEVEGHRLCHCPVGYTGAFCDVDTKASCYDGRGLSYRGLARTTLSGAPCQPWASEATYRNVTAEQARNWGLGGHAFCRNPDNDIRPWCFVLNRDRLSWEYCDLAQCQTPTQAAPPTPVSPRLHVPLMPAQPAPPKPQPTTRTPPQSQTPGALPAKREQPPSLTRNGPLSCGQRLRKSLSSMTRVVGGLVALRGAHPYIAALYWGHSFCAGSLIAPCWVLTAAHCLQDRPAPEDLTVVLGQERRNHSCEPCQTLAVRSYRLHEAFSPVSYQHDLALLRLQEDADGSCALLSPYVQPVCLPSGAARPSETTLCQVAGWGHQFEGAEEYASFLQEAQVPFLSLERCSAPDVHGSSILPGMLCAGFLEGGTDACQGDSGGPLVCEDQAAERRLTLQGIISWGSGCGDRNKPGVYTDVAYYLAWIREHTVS

[12] = molecular target: T7, CAAX prenyl protease 2 (Saccharomyces cerevisiae S288c, UniProt Q03530); format: biochemical
T7 sequence (Q03530 whole entry): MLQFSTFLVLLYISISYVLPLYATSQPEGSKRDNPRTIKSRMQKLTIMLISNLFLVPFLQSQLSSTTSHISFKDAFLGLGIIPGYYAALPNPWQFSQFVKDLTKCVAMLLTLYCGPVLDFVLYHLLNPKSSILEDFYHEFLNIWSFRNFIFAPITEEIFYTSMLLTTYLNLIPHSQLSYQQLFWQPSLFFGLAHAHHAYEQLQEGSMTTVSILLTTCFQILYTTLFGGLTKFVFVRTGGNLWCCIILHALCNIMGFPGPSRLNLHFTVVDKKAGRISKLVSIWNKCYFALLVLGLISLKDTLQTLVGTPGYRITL

[13] = HEK-293T viability loss after treatment – luminescence, T-cell screen hits, cytotoxicity control for TCR NF-kB inhibitor project, dose response (AID 489026); format: functional, cell-based;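 note: cells exposed to compound about 14 hours before the viability readout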
[14] = molecular target: T8, Microphthalmia-associated transcription factor (Homo sapiens, UniProt O75030); assay: reducers of TRPM1 reporter luminescence, concentration series – cell-based, SK-MEL-5, cherry-picked, set 3, MITF inhibitor project, dose response (AID 493073); format: functional;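 note: SK-MEL-5 melanoma cells with luciferase driven by the MITF target TRPM1 promoter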
T8 sequence (O75030 whole entry): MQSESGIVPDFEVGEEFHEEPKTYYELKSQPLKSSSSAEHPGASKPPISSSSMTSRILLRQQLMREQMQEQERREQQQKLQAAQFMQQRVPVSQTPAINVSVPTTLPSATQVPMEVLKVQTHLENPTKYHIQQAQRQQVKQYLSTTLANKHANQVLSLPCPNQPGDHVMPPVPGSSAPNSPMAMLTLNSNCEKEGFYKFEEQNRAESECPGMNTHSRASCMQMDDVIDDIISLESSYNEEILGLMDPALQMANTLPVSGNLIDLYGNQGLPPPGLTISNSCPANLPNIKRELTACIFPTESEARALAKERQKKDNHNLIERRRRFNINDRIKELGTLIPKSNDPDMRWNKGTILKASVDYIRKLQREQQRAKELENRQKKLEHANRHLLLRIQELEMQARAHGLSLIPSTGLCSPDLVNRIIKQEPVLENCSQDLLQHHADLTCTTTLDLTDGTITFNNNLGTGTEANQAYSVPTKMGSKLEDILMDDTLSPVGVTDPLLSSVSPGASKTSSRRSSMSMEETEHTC

## CC(C)OC(=O)/C(C#N)=C/c1ccc(-c2ccc(SC(F)F)cc2)o1
[1]
  EC50: 11.9 µM (active)
[2]
  EC50: > 99 µM (inactive)
[3]
  CC50: > 40 µM (active)

## COc1ccc(C(=O)ON=C(N)c2ccccn2)cc1
[4]
  AC50: 8.88 µM (active)
[5]
  EC50: 1.47 µM (active)
[6]
  AC50: 12.6 µM (active)

## CC(C)OC(=O)/C(=C/c1ccc2c(c1)c1ccccc1n2C)NC(=O)c1ccccc1
[7]
  IC50: 19.1 µM (not active)
[8]
  IC50: 14.7 µM (not active)

## Cc1cccc(-n2ccnc2SCC(=O)N2CCCc3ccccc32)c1C
[7]
  IC50: 4.08 µM (active)
[8]
  IC50: 1.56 µM (active)

## COc1ccc(N/C=C\C(=O)c2ccc(C)cc2)cc1OC
[1]
  EC50: 25 µM (inactive)
[9]
  EC50: > 300 µM (not active)
[2]
  EC50: > 99 µM (inactive)
[10]
  EC50: > 300 µM (not active)

## O=C(NCCN1C(=O)C2C3C=CC(C3)C2C1=O)Nc1ccccc1 (centres undefined)
[11]
  IC50: > 50 µM (inactive)

## Oc1ccc(-c2nc3ccccn3c2NCc2ccc3c(c2)OCO3)cc1
[12]
  AC50: 27.7 µM (active)

## O=C(CCc1nc(-c2ccccc2)c(-c2ccccc2)o1)OCc1ccc(Br)cc1
[7]
  IC50: 8.36 µM (active)
[8]
  IC50: 15.1 µM (not active)

## CN1CCN(C(=O)c2ccc3c(c2)NC(=O)/C(=C/c2ccccc2)S3)CC1
[6]
  AC50: 29.7 µM (active)

## CN(C(=O)Oc1cccc2cccnc12)c1ccccc1
[11]
  IC50: > 50 µM (inactive)

## CCOC(=O)c1cc2c(O)nccc2nc1C
[12]
  AC50: 10.3 µM (active)

## COc1cc(-c2noc(C)c2C#Cc2ccsc2)cc(OC)c1OC
[13]
  IC50: > 80 µM (inactive)

## Cc1nn(-c2ncccn2)c2c1C(=O)CC(C)(C)C2Br (centres undefined)
[6]
  AC50: 69.7 µM (active)

## CCOC(=O)Cn1/c(=N/C(=O)c2ccc([N+](=O)[O-])s2)sc2ccccc21
[1]
  EC50: > 99 µM (inactive)
[2]
  EC50: > 99 µM (inactive)
[14]
  AC50: 3.5 µM (active)

## Cc1ccc(C(=O)Nc2cccc(C(=O)N/N=C/c3ccc(F)cc3)c2)cc1
[1]
  EC50: > 99 µM (inactive)
[2]
  EC50: 41.1 µM (inactive)

## COc1cc2c(cc1O)CC[C@@H]1[C@@H]2CC[C@]2(C)[C@@H](O)CC[C@@H]12 [2-METHOXYESTRADIOL]
[13]
  IC50: > 80 µM (inactive)
